Patent publication US20200054646A1, “USE OF PHENOTHIAZINE DERIVATIVE IN THE TREATMENT OF INFECTIOUS PURPURA OR PURPURA FULMINANS” (priority 2016, published 2020)

What was measured:
[1] = system: N. meningitidis 2C4.3 bacterial aggregates; test: microbe, parasite or virus in culture; type: cell-based, Neisseria meningitidis; settings: for effect on dispersion of meningococcal aggregates (in words): 0.5 to 80 μM, 30 min; for EC80: Neisseria meningitidis, 0.5 h, read-out: Concentration promoting efficient meningococcal dispersal (~80%); for Concentration promoting efficient meningococcal dispersal (~80%): 30 min treatment, 0.5 to 80 μM tested
Procedure: N. meningitidis 2C4.3 was grown in liquid culture at 10^7 CFU/ml for 2 h to form bacterial aggregates and were treated with increasing concentrations of Trifluoperazine (10 to 40 μM), Gentamicin (150 μg/ml) or cefotaxim (20 μg/ml) for 20 minutes and bacterial aggregates were immediately visualized using a phase-contrast microscope. […] (B) Quantification of the bacterial aggregation was performed using Image J software.
N. meningitidis 2C4.3 wild type strain and the isogenic derivative mutant PilT ([…]PilT) were grown in liquid culture at 10^7 CFU/ml for 2 h to form bacterial aggregates and then treated with 50 μM Trifluoperazine. Time lapse phase-contrast video microscopy was performed to visualize the effect on bacterial aggregates over time. Images were taken at the indicated time points of the video.
N. meningitidis 2C4.3 was grown in liquid culture at 10^7 CFU/ml for 2 h to form bacterial aggregates and were treated with 30 μM Trifluoperazine for 30 minutes to induce bacterial dispersion or PBS as a control. The medium was replaced to remove the Trifluoperazine and the reformation of bacterial aggregates were visualized overtime using a phase-contrast microscope.
FIG. 7. […] Bacteria were grown in suspension for 2 h then Phenothiazine derivatives were added at the indicated concentrations.
N. meninigitidis 2C4.3 strain was grown in suspension in wells of a 24 well plate, containing 1 ml of DMEM medium supplemented with 10% heat-inactivated fetal calf serum. After 2 h of growth, Trifluoperazine (or control vehicle) was added at various concentrations ranging from 10 to 40 μM for 20 min and the bacterial aggregates were visualized over time using a phase-contrast microscope.
N. meninigitidis 2C4.3 strain was grown in suspension in wells of a 24 well plate, containing 1 ml of DMEM medium supplemented with 10% heat-inactivated fetal calf serum. After 2 h of growth, various concentrations (0.5 to 80 μM) of phenothiazine-derivative compounds or control vehicle (PBS or DMSO) were added to the wells for 30 min and the bacterial aggregates were visualized using a phase-contrast microscope.
Were tested phenothiazine-derivative compounds of: • the Piperazine group: Trifluoperazine (Sigma #T8516), Fluphenazine (Sigma #F4765), Prochlorperazine (Sigma #P9178) Perphenazine (Sigma #P6402); • the Piperidine group: Thioridazine (Sigma #T9025) and Mesoridazin (Sigma #M4068); • the Aliphatic group: Chlorpromazine (Sigma #C8138), Promazine (Sigma #P6656), Triflupromazine (Sigma #1686003) and levomepromazine (Sigma #L0500000).

[2] = system: Nm2C4.3 microcolonies on HBMEC; test: Dispersion of meningococcal microcolonies at the surface of infected human endothelial cells; type: cell-based, Neisseria meningitidis; settings: Cefotaxim 20 μg/ml
Procedure: Human […] microvascular endothelial cells (HBMEC) were infected with Nm2C4.3 for 1 h 30, treated with Trifluoperazine (10-40 μM) for 30 minutes, before fixation and immunofluorescence analysis using anti-Nm2C4.3 antibody and Alexa Fluor 633 Phalloidin. (A) Representative fluorescence microscopy showing bacterial colony (white dots) formed at the surface of the endothelial cells. (B) Quantification of the bacterial colonization was performed using Image J software.
HBMEC, a human endothelial cell line isolated from bone marrow capillaries (Schweitzer et al., 1997) were grown in Dulbecco's Modified Eagle Medium (DMEM) 4.5 g/L-Glutamax (ThermoFischer) 10% FBS. Cells were grown on Thermanox coverslips coated with gelatin 2% (BD Difco #214340) for 2 days to reach confluency. Cells were then infected with a suspension of Nm2C4.3 (˜10^7 CFU/ml) in DMEM/FBS during 30 minutes to allow bacterial adhesion. Cells were then washed three times with medium to remove non-adherent bacteria and infection was pursued for 1 h 30: adherent bacteria grew at the endothelial cell surface and formed micro-colonies. Trifluoperazine was then added to obtain final concentrations of 10, 20, 30 and 40 μM. After incubation for 30 minutes, cells were washed and fixed in 4% Paraformaldehyde for 10 min, washed three times with PBS, and permeabilized with 0.1% Triton X-100 in PBS for 10 min. Cells were blocked for 30 min with 3% BSA in PBS and were incubated for 2 h with the primary antibodies (Rabbit polyclonal anti-Nm2C4.3 strain, kindly provided by Dr X. Nassif, INEM, Paris). After three washes with PBS, cells were incubated for 1 h with […] anti-rabbit IgG (Jackson ImmunoResearch Laboratories), together with Alexa Fluor 633 Phalloidin (Thermofischer) and DAPI (0.5 mg ml-1, Sigma Aldrich) to stain Actin and nuclei, respectively. Labelled preparations were mounted in Glycergel media (DAKO) and image acquisitions were performed with a DM16000 microscope (Leica, X40). Quantification was done with ImageJ software (NIH). Results are presented as a vascular colonisation index corresponding to the area occupied by the fluorescently labelled bacteria per fields in relation to the area occupied by the fluorescently labelled human endothelial cells (Actin staining). Statistical analysis were performed with Student t test.

[3] = system: meningococcal colonization of the human dermal vasculature; test: In vivo infection of mice engrafted with human skin; settings: cefotaxime treatment

SMILES | effect on dispersion of meningococcal aggregates (in words) [1] | EC80 [1] [µM] | Concentration promoting efficient meningococcal dispersal (~80%) [1] | also measured
CN(C)CCCN1c2ccccc2Sc2ccccc21 [Promazine] | inhibited bacterial aggregation with better efficacy than Trifluoperazine | 10 |  | 
CSc1ccc2c(c1)N(CCC1CCCCN1C)c1ccccc1S2 (stereo not shown) [Thioridazine] |  | 4 |  | 
CN1CCN(CCCN2c3ccccc3Sc3ccc(Cl)cc32)CC1 [Prochlorperazine] |  | 30 |  | 
COc1ccc2c(c1)N(C[C@H](C)CN(C)C)c1ccccc1S2 [Levomepromazine] | no effects |  | No effect | 
CN(C)CCCN1c2ccccc2Sc2ccc(C(F)(F)F)cc21 [Triflupromazine] | no effects |  | No effect | 
CN1CCCCC1CCN1c2ccccc2Sc2ccc([S+](C)[O-])cc21 (stereo not shown) [Mesoridazine] |  | 6 |  | 
OCCN1CCN(CCCN2c3ccccc3Sc3ccc(Cl)cc32)CC1 [Perphenazine] |  | 40 |  | 
CO/N=C(\C(=O)N[C@@H]1C(=O)N2C(C(=O)O)=C(COC(C)=O)CS[C@H]12)c1csc(N)n1 [Cefotaxim] |  |  |  | dispersion of bacterial aggregates formed in suspension ([1]; Cefotaxim 20 μg/ml, 20 minutes): did not significantly induce the dispersion; dispersion of microcolonies at the endothelial cell surface [2]: poorly induced the dispersion; increase of inflammatory response [3]: 2 fold
CN(C)CCCN1c2ccccc2Sc2ccc(Cl)cc21 [Chlorpromazine] | no effects |  | No effect | 
OCCN1CCN(CCCN2c3ccccc3Sc3ccc(C(F)(F)F)cc32)CC1 [Fluphenazine] |  | 40 |  | 
